Legend:
Type in all cases: cell-based, human
BT20 = test: cell proliferation assay (cell titer blue), BT20; details: BT20 (HR1, VDR+), Calcitrol 25 nM alone; FIG. 24A-24C
MDA-MB-468 = test: cell proliferation assay (cell titer blue), MDA-MB-468; details: MDA-MB-468 (HR1, VDR+), Calcitrol 25 nM alone; FIG. 24A-24C
SUM159 = test: cell proliferation assay (cell titer blue), SUM159; details: SUM159 (HR1, VDR+), Calcitrol 25 nM alone; FIG. 24A-24C
MDA-MB-453 = test: cell proliferation assay, MDA-MB-453; details: ER-negative control cell line MDA-MB-453, ICI 182,780 100 nM; FIG. 24H

C=C1/C(=C\C=C2/CCC[C@]3(C)[C@@H]([C@H](C)CCCC(C)(C)O)CC[C@@H]23)C[C@@H](O)C[C@@H]1O [Calcitrol, Calcitriol]
proliferation (BT20): reduction in proliferation
proliferation (MDA-MB-468): reduction in proliferation
proliferation (SUM159): reduction in proliferation

C[C@]12CC[C@@H]3c4ccc(O)cc4C[C@@H](CCCCCCCCC[S+]([O-])CCCC(F)(F)C(F)(F)F)[C@H]3[C@@H]1CC[C@@H]2O (stereo partly shown) [ICI 182,780]
inhibition of cell proliferation (MDA-MB-453): no inhibition of cell proliferation
